From patent publication US7482308B2, “Difluoromethanesulfonyl anilide derivatives useful as herbicides” (Bayer CropScience AG, priority 2004, dated 2009)

Legend:
Assay type in all cases: in vivo
[1] = tested on: Cyperus serotinus Rottboel; assay: Test for herbicidal effect against paddy field weeds (Test Example 1); details: examined 3 weeks after treatment
Experimental: (§1) Preparation of Formulation of the Active Compound
(§2) • Carrier: DMF 5 parts by weight • Emulsifier: Benzyloxy polyglycol ether 1 part by weight
(§3) A formulation of an active compound is obtained as an emulsifiable concentrate by mixing 1 part by weight of the active compound with the above-mentioned amount of the carrier and emulsifier. A prescribed amount of the formulation is diluted with water.
(§4) In a green house seeds or tubers of Scirpus juncoides Roxburgh, Monochoria vaginalis Presi, annual broad-leaved weeds (Lindemia procumbens Philcox, Rotala indica Koehne, Elatine triandra Schk, Ammannia multiflora Roxb., etc.), Cyperus serotinus Rottboel were inoculated in a 500 cm^2 pot filled with paddy field soil. Then water was poured to a depth of about 2-3 cm. Five days and 13 days after inoculation, a prescribed, diluted solution of the formulation of each active compound, prepared according to the aforementioned preparation method, was applied to the surface of water. After the treatment the water depth of 3 cm was maintained and the herbicidal effect was examined after 3 weeks from the treatment.
(§5) The herbicidal effect was rated 100% in the case of complete death and as 0% in the case of no herbicidal effect. In case of showing higher than 80% herbicidal effect, it is evaluated as practical as herbicide.

[2] = tested on: Monochoria vaginalis Presi; assay: as above; details: examined 3 weeks after treatment
Experimental: as §1, §2, §3, §4, §5

[3] = tested on: Scirpus juncoides Roxburgh; assay: as above; details: examined 3 weeks after treatment
Experimental: as §1, §2, §3, §4, §5

[4] = tested on: annual broad-leaved weeds; assay: as above; details: examined 3 weeks after treatment
Experimental: as §1, §2, §3, §4, §5

[5] = tested on: sulfonylurea resistant Lindernia procumbens Philcox (collected in Kazo area, Saitama Pref.); assay: Test for herbicidal effect against sulfonylurea resistant weeds (Test Example 3); details: applied at beginning of emergence, examined 3 weeks after treatment
Excerpt: (§6) In a green house seeds of Scirpus juncoides Roxburgh (collected in Iwamizawa area, Hokkaido), Lindernia procumbens Philcox (collected in Kazo area, Saitama Pref.), Lindernia procumbens Philcox (collected in Higashi-Hiroshima area, Hiroshima Pref.), Elatine triandra Schk (collected in Kazo area, Saitama Pref.), all of which were confirmed as sulfonylurea resistant, were inoculated in a 20 cm^2 cup filled with paddy field soil. Then water was poured to a depth of about 2 to 3 cm. At the beginning of emergence of each weed, a prescribed, diluted solution of the formulation of each active compound prepared in the same manner as the above-mentioned Test Example 1 was applied to the surface of water. After the treatment the water depth of 3 cm was maintained and the herbicidal effect was examined after 3 weeks from the treatment. The evaluation of the herbicidal effect was conducted in the same manner as the above-mentioned Test Example 1. In case of showing higher than 80% herbicidal effect, it is evaluated as practical as herbicide. In consideration of the possibility that the biological properties including herbicide resistance of the plants grown in different areas might be different, sulfonylurea resistant Lindernia procumbens Philcox collected in two different areas were used in the present tests. The study results with the compounds No. 1, 3, 11 and 17 and the comparative compound No. C-1 as specific examples are shown in the following Table 6.

[6] = tested on: sulfonylurea resistant Scirpus juncoides Roxburgh (collected in Iwamizawa area, Hokkaido); assay: as above; details: applied at beginning of emergence, examined 3 weeks after treatment
Excerpt: as §6

Cyperus difformis L. = assay: Herbicidal effect against paddy field weeds, spray at two leaf-stage of rice (Test Example 5); details: 50 g ai/ha, evaluated 3 weeks after treatment
Excerpt: (§7) In a greenhouse seeds of Scirpus juncoides Roxburgh, Monochoria vaginalis Presi, Cyperus difformis L., annual broad-leaved weeds (Lindernia procumbens Philcox, Rotala indica Koehne, Elatine triandra Schk, Ammannia multiflora Roxb.) and rice (var.: Nipponbare and RD-23) were inoculated in a 500 cm^2 pot filled with paddy field soil. Then water was poured to a depth of about 0 to about 0.5 cm, to be a wet condition. At two leaf-stage of rice, a prescribed, diluted solution of the formulation of each active compound, prepared in the same manner as the above-mentioned Test Example 1, was sprayed over the pots with plants. At 2 days after the treatment, the water depth of 3 cm was maintained and the herbicidal effect and rice injury was evaluated at 3 weeks and 2 weeks after the treatment, respectively.
(§8) The herbicidal effect and rice injury were rated 100% in the case of complete death and as 0% in the case of no effect or injury. In case of showing higher than 80% herbicidal effect and less than 20% injury, it is evaluated as practical as rice herbicide.

[7] = tested on: Monochoria vaginalis Presi; assay: as above; details: 50 g ai/ha, evaluated 3 weeks after treatment
Excerpt: as §7, §8

[8] = tested on: Scirpus juncoides Roxburgh; assay: as above; details: 50 g ai/ha, evaluated 3 weeks after treatment
Excerpt: as §7, §8

[9] = tested on: annual broad-leaved weeds; assay: as above; details: 50 g ai/ha, evaluated 3 weeks after treatment
Excerpt: as §7, §8

[10] = tested on: direct-seedling rice var. Nipponbare; assay: Test for phytotoxicity to direct-seedling rice (Test Example 5); details: 50 g ai/ha; spray at two leaf-stage of rice; evaluated 2 weeks after treatment
Excerpt: as §7, §8

[11] = tested on: direct-seedling rice var. RD-23; assay: as above; details: 50 g ai/ha; spray at two leaf-stage of rice; evaluated 2 weeks after treatment
Excerpt: as §7, §8

[12] = tested on: Monochoria vaginalis Presi; assay: Test for residual effectiveness against paddy field weeds (Test Example 2); details: 60 g ai/ha; period of maintaining herbicidal effect of higher than 80%
Excerpt: (§9) In a green house a 1000 cm^2 pot was filled with paddy field soil and water was poured to a depth of about 2 to 3 cm. A prescribed, diluted solution of the above-mentioned Test Example 1, was applied to the surface of water. After the prescribed time after the treatment (just after treatment, 1 week, 2 weeks, 3 weeks, 4 weeks, 5 weeks, 6 weeks and 7 weeks after treatment), seeds or tubers of the weeds to be tested Scirpus juncoides Roxburgh, Monochoria vaginalis Presi, annual broad-leaved weeds (Lindernia procumbens Philcox, Rotala indica Koehne, Elatine triandra Schk, Ammannia multiflora Roxb., etc.), Cyperus serotinus Rottboel and Sagittaria pygmaea Miq. were inoculated. Three weeks after the inoculation each herbicidal effect was examined.
(§10) The evaluation of the residual effectiveness was shown as the period (number of weeks) of maintaining herbicidal effect of higher than 80%, after the evaluation of herbicidal effect had been conducted in the similar manner as the above-mentioned Test Example 1.

Sagittaria pygmaea Miq. = assay: as above; details: 60 g ai/ha; period of maintaining herbicidal effect of higher than 80%
Excerpt: as §9, §10

[13] = tested on: Scirpus juncoides Roxburgh; assay: as above; details: 60 g ai/ha; period of maintaining herbicidal effect of higher than 80%
Excerpt: as §9, §10

[14] = tested on: annual broad-leaved weeds; assay: as above; details: 60 g ai/ha; period of maintaining herbicidal effect of higher than 80%
Excerpt: as §9, §10

[15] = tested on: transplanted rice (var. Nipponbare); assay: Test for phytotoxicity to transplanted rice (Test Example 4); details: 60 g ai/ha, application 5 days after transplanting, examined 2 weeks after treatment; for phytotoxicity to transplanted rice depth 0 cm: planting depth 0 cm; for phytotoxicity to transplanted rice depth 0.5 cm: planting depth 0.5 cm; for phytotoxicity to transplanted rice depth 2 cm: planting depth 2 cm
Experimental: The phytotoxicity to transplanted rice was evaluated under the conditions with more shallow planting depths than usual depth of 2 cm, simulating the severe condition for herbicides to cause rice injury in the paddy. In a greenhouse 2 to 2.5 leaf-stage of rice (var. Nipponbare) was transplanted at three different depths, in a 1000 cm^2 pot filled with paddy field soil. Then water was poured to a depth of about 2 to about 3 cm. Five days after transplanting, a prescribed, diluted solution of the formulation of each active compound, prepared in the same manner as the above-mentioned Test Example 1, was applied to the surface of water. After the treatment the water depth of 3 cm was maintained and the rice injury was examined after 2 weeks from the treatment. The rice injury was rated 100% in the case of complete death and as 0% in the case of no injury. In case of showing less than 20% injury, it is evaluated as practical as rice herbicide.

[16] = 30 g ai/ha, application 5 days after inoculation
[17] = 30 g ai/ha, application 13 days after inoculation
[18] = 60 g ai/ha, application 5 days after inoculation
[19] = 60 g ai/ha, application 13 days after inoculation

COc1cc(OC)nc(C(O)c2cccc(Cl)c2NS(=O)(=O)C(F)F)n1 (centres unmarked) [Compound 3, 2-chloro-6-[(4,6-dimethoxypyrimidin-2-yl)hydroxymethyl]-N-difluoromethanesulfonanilide]
herbicidal effect Cyperus serotinus [1, 16]: 100% | herbicidal effect Cyperus serotinus [1, 17]: 100% | herbicidal effect Monochoria vaginalis [2, 16]: 100% | herbicidal effect Monochoria vaginalis [2, 17]: 100% | herbicidal effect Scirpus juncoides [3, 16]: 100% | herbicidal effect Scirpus juncoides [3, 17]: 100% | herbicidal effect broad-leaved weeds [4, 16]: 100% | herbicidal effect broad-leaved weeds [4, 17]: 100% | herbicidal effect against sulfonylurea resistant weeds Lindernia procumbens (collected in Kazo area, Saitama Pref.) ([5]; 30 g ai/ha): 100% | herbicidal effect against sulfonylurea resistant weeds Lindernia procumbens (collected in Kazo area, Saitama Pref.) ([5]; 60 g ai/ha): 100% | herbicidal effect against sulfonylurea resistant weeds Scirpus juncoides (collected in Iwamizawa area, Hokkaido) ([6]; 30 g ai/ha): 100% | herbicidal effect against sulfonylurea resistant weeds Scirpus juncoides (collected in Iwamizawa area, Hokkaido) ([6]; 60 g ai/ha): 100% | herbicidal effect Cyperus difformis L. (Cyperus difformis L.): 100% | herbicidal effect Monochoria vaginalis [7]: 100% | herbicidal effect Scirpus juncoides [8]: 100% | herbicidal effect broad-leaved weeds [9]: 100% | Phytotoxicity to direct-seedling rice Nipponbare [10]: 20% | Phytotoxicity to direct-seedling rice RD-23 [11]: 10%

COc1cc(OC)nc(Cc2cccc(Cl)c2NS(=O)(=O)C(F)F)n1 [Compound 11, 2-chloro-6-[(4,6-dimethoxypyrimidin-2-yl)methyl]-N-difluoromethanesulfonanilide]
herbicidal effect Cyperus serotinus [1, 18]: 100% | herbicidal effect Cyperus serotinus [1, 19]: 95% | herbicidal effect Monochoria vaginalis [2, 18]: 100% | herbicidal effect Monochoria vaginalis [2, 19]: 100% | herbicidal effect Scirpus juncoides [3, 18]: 100% | herbicidal effect Scirpus juncoides [3, 19]: 100% | herbicidal effect broad-leaved weeds [4, 18]: 100% | herbicidal effect broad-leaved weeds [4, 19]: 100% | period showing sufficient residual herbicidal effectiveness Monochoria vaginalis [12]: 3 week | period showing sufficient residual herbicidal effectiveness Sagittaria pygmaea (Sagittaria pygmaea Miq.): 4 week | period showing sufficient residual herbicidal effectiveness Scirpus juncoides [13]: 4 week | period showing sufficient residual herbicidal effectiveness broad-leaved weeds [14]: 4 week | herbicidal effect against sulfonylurea resistant weeds Lindernia procumbens (collected in Kazo area, Saitama Pref.) ([5]; 30 g ai/ha): 100% | herbicidal effect against sulfonylurea resistant weeds Lindernia procumbens (collected in Kazo area, Saitama Pref.) ([5]; 60 g ai/ha): 100% | herbicidal effect against sulfonylurea resistant weeds Scirpus juncoides (collected in Iwamizawa area, Hokkaido) ([6]; 30 g ai/ha): 100% | herbicidal effect against sulfonylurea resistant weeds Scirpus juncoides (collected in Iwamizawa area, Hokkaido) ([6]; 60 g ai/ha): 100% | phytotoxicity to transplanted rice depth 0 cm [15]: 15% | phytotoxicity to transplanted rice depth 0.5 cm [15]: 15% | phytotoxicity to transplanted rice depth 2 cm [15]: 10% | herbicidal effect Cyperus difformis L. (Cyperus difformis L.): 100% | herbicidal effect Monochoria vaginalis [7]: 100% | herbicidal effect Scirpus juncoides [8]: 90% | herbicidal effect broad-leaved weeds [9]: 100% | Phytotoxicity to direct-seedling rice Nipponbare [10]: 10% | Phytotoxicity to direct-seedling rice RD-23 [11]: 10%

COc1cc(OC)nc(C(=O)c2cccc(F)c2NS(=O)(=O)C(F)F)n1 [Compound 17, 2-fluoro-6-[(4,6-dimethoxypyrimidin-2-yl)carbonyl]-N-difluoromethanesulfonanilide]
herbicidal effect Cyperus serotinus [1, 16]: 100% | herbicidal effect Cyperus serotinus [1, 17]: 100% | herbicidal effect Monochoria vaginalis [2, 16]: 100% | herbicidal effect Monochoria vaginalis [2, 17]: 100% | herbicidal effect Scirpus juncoides [3, 16]: 100% | herbicidal effect Scirpus juncoides [3, 17]: 100% | herbicidal effect broad-leaved weeds [4, 16]: 100% | herbicidal effect broad-leaved weeds [4, 17]: 100% | herbicidal effect against sulfonylurea resistant weeds Lindernia procumbens (collected in Kazo area, Saitama Pref.) ([5]; 30 g ai/ha): 95% | herbicidal effect against sulfonylurea resistant weeds Lindernia procumbens (collected in Kazo area, Saitama Pref.) ([5]; 60 g ai/ha): 100% | herbicidal effect against sulfonylurea resistant weeds Scirpus juncoides (collected in Iwamizawa area, Hokkaido) ([6]; 30 g ai/ha): 100% | herbicidal effect against sulfonylurea resistant weeds Scirpus juncoides (collected in Iwamizawa area, Hokkaido) ([6]; 60 g ai/ha): 100%

COCc1cccc(C(O)c2nc(OC)cc(OC)n2)c1NS(=O)(=O)C(F)F (centres unmarked) [Compound C-2, reference compound]
period showing sufficient residual herbicidal effectiveness Monochoria vaginalis [12]: 2 week | period showing sufficient residual herbicidal effectiveness Sagittaria pygmaea (Sagittaria pygmaea Miq.): 3 week | period showing sufficient residual herbicidal effectiveness Scirpus juncoides [13]: 2 week | period showing sufficient residual herbicidal effectiveness broad-leaved weeds [14]: 2 week | phytotoxicity to transplanted rice depth 0 cm [15]: 40% | phytotoxicity to transplanted rice depth 0.5 cm [15]: 30% | phytotoxicity to transplanted rice depth 2 cm [15]: 30% | herbicidal effect Cyperus difformis L. (Cyperus difformis L.): 100% | herbicidal effect Monochoria vaginalis [7]: 100% | herbicidal effect Scirpus juncoides [8]: 90% | herbicidal effect broad-leaved weeds [9]: 100% | Phytotoxicity to direct-seedling rice Nipponbare [10]: 50% | Phytotoxicity to direct-seedling rice RD-23 [11]: 30%
